Source: ChEMBL document CHEMBL4616680, “Shedding X-ray Light on the Role of Magnesium in the Activity of Mycobacterium tuberculosis Salicylate Synthase (MbtI) for Drug Design” (J Med Chem, 2020)
Calls of active or inactive are those of the source. No cut-off for these calls is given here.

How the values were obtained:
[1] = system: Mycobacterium tuberculosis; assay: Inhibition of myco-bactins production in Mycobacterium bovis BCG at 250 to 1000 mM by universal CAS assay; assay type: functional, organism-based; settings: variant bovis BCG
[2] = system: Mycobacterium tuberculosis; assay: Inhibition of siderophore production in Mycobacterium bovis BCG at 250 to 1000 mM incubated for 15 days by universal CAS assay; assay type: functional, organism-based; settings: variant bovis BCG

N#Cc1cccc(-c2ccc(C(=O)O)o2)c1
inhibition [1]: Active | inhibition [2]: Active
